In ChEMBL document CHEMBL5500396, “Discovery, Multiparametric Optimization, and Solid-State Driven Identification of CHF-6550, a Novel Soft Dual Pharmacology Muscarinic Antagonist and β2 Agonist (MABA) for the Inhaled Treatment of Respiratory Diseases” (J Med Chem, 2024):

Key:
[1] = target: Muscarinic acetylcholine receptor M3 (Cavia porcellus, UniProt Q8VH26); experiment: Antagonist activity at M3 receptor in male albino Dunkin-Hartley guinea pig trachea assessed as inhibition of carbachol-induced smooth muscle contraction in presence of propranolol
Muscarinic acetylcholine receptor M3 (Cavia porcellus, UniProt Q8VH26), sequence (Q8VH26 whole entry): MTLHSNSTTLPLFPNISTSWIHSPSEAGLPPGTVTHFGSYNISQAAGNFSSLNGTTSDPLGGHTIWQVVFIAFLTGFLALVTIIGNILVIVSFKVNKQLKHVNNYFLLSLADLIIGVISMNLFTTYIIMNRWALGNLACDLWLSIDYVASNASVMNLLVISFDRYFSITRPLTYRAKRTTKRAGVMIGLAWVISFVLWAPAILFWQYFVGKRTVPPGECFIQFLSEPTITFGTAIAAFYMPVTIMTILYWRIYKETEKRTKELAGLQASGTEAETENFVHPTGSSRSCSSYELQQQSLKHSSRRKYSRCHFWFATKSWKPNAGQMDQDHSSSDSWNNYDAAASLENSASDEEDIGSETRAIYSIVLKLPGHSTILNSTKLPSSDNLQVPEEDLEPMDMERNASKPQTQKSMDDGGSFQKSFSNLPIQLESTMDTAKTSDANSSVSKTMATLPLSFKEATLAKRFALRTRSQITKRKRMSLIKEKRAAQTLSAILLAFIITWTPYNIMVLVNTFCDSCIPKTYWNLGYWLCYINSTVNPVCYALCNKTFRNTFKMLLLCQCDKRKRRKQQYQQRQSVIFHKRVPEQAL

[2] = target: Beta-2 adrenergic receptor (Homo sapiens, UniProt P07550)
Beta-2 adrenergic receptor (Homo sapiens, UniProt P07550), sequence (P07550 whole entry): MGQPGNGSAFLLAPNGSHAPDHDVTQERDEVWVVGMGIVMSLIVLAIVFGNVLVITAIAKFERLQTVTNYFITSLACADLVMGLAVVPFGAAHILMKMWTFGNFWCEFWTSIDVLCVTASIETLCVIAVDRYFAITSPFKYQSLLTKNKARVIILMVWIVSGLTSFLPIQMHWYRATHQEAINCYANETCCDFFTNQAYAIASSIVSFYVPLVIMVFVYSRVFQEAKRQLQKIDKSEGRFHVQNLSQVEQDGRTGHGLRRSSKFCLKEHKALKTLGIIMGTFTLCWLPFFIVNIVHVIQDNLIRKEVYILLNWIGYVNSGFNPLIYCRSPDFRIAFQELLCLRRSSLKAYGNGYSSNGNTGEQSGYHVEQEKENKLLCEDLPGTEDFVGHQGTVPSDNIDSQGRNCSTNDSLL
Description: Displacement of [125I]-Cyanopindolol from human beta2 adrenoceptor assessed as inhibition constant incubated for 1 hrs by Microbeta scintillation counter

[3] = target: Muscarinic acetylcholine receptor M3 (Homo sapiens, UniProt P20309)
Muscarinic acetylcholine receptor M3 (Homo sapiens, UniProt P20309), sequence (P20309 whole entry): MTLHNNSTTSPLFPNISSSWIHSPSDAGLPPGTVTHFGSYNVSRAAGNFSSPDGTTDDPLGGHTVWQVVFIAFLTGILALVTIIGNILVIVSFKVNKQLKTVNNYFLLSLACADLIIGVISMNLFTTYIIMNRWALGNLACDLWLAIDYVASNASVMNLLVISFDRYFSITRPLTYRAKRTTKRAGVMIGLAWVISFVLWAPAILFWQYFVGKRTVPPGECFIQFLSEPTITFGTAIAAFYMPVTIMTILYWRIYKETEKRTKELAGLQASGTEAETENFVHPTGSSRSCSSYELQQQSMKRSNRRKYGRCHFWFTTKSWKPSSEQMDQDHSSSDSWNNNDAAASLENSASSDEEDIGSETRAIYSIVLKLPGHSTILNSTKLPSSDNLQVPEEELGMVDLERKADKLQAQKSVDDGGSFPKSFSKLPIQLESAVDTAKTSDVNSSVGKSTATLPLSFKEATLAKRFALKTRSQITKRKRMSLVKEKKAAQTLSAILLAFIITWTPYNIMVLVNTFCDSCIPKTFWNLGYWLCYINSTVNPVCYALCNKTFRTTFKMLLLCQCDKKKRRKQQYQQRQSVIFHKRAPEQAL
Description: Displacement of Scopolamine methyl chloride,[N-methyl-3H] from human muscarinic M3 receptor assessed as inhibition constant incubated for 2 hrs by Microbeta scintillation counter

[4] = target: Beta-2 adrenergic receptor (Cavia porcellus, UniProt Q8K4Z4); experiment: Agonist activity at beta2 adrenoceptor in male albino Dunkin-Hartley guinea pig trachea assessed as inhibition of histamine induced smooth muscle contraction
Beta-2 adrenergic receptor (Cavia porcellus, UniProt Q8K4Z4), sequence (Q8K4Z4 whole entry): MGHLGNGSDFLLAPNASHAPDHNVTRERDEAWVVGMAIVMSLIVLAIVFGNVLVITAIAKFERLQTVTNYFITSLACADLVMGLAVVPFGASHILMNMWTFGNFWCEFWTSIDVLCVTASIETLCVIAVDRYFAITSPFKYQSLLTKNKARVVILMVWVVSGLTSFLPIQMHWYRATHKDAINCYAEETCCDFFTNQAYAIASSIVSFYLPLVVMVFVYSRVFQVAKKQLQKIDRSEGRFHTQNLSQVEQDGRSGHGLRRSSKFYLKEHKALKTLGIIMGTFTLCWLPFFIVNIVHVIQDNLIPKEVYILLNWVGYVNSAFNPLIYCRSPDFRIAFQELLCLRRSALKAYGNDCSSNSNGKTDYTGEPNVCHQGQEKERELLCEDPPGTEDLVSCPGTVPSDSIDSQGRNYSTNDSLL

[5] = test system: Trachea; experiment: Inhibition of carbachol-induced smooth muscle contraction in male albino Dunkin-Hartley guinea pig trachea; conditions: Cavia porcellus, read-out: pIC50 (converted)
[6] = in vitro; conditions: human, plasma
Description: Stability in human plasma assessed as half-life at 5 uM incubated for 120 mins by LC-MS/MS analysis

[7] = in vitro; conditions: rat, hepatocytes
Description: Metabolic stability in rat hepatocytes assessed as clearance measured per 10^6 cells at 1 uM incubated for 90 mins by LC-MS/MS analysis

[8] = in vitro; conditions: guinea pig, plasma
Description: Stability in guinea pig plasma assessed as half-life at 5 uM incubated for 120 mins by LC-MS/MS analysis

[9] = in vitro; conditions: human, hepatocytes
Description: Metabolic stability in human hepatocytes assessed as clearance measured per 10^6 cells at 1 uM incubated for 90 mins by LC-MS/MS analysis

[10] = in vitro; conditions: rat, plasma
Description: Stability in rat plasma assessed as half-life at 5 uM incubated for 120 mins by LC-MS/MS analysis

[11] = in vitro; conditions: human, lung S9 fraction
Description: Stability in human lung S9 fraction assessed as half-life at 1 uM incubated for 60 mins by LC-MS/MS analysis

[12] = in vitro; conditions: rat, lung S9 fraction
Description: Stability in rat lung S9 fraction assessed as half-life at 1 uM incubated for 60 mins by LC-MS/MS analysis

[13] = in vitro; conditions: guinea pig, lung S9 fraction
Description: Stability in guinea pig lung S9 fraction assessed as half-life at 1 uM incubated for 60 mins by LC-MS/MS analysis

[14] = in vitro; conditions: guinea pig, hepatocytes
Description: Metabolic stability in guinea pig hepatocytes assessed as clearance measured per 10^6 cells at 1 uM incubated for 90 mins by LC-MS/MS analysis

[15] = test system: Cavia porcellus; experiment: Inhibition of acetylcholine induced bronchoconstriction in male albino Dunkin-Hartley guinea pig model at 3 nmol/kg, IT(Intratracheal) preadministered with compound followed by acetylcholine addition at 5 to 30 mins and measured 1 hrs post compound treatment relative to control; conditions: read-out: INH
[16] = species on record: Cavia porcellus; experiment: animal or person; conditions: albino Dunkin-Hartley, 1 h, read-out: INH
Description: Inhibition of acetylcholine induced bronchoconstriction in male albino Dunkin-Hartley guinea pig model at 3 nmol/kg, IT(Intratracheal) preadministered with compound followed by acetylcholine addition at 5 to 30 mins in presence of ICI-118551 and measured 1 hrs post compound treatment relative to control

[17] = test system: Cavia porcellus; experiment: Inhibition of histamine induced bronchoconstriction in male albino Dunkin-Hartley guinea pig model at 3 nmol/kg, IT(Intratracheal) preadministered with compound followed by histamine addition at 5 to 30 mins and measured 1 hrs post compound treatment relative to control; conditions: read-out: INH
[18] = Protein binding in human plasma at 5 uM incubated for 4 hrs by LC-MS/MS analysis

Compound: O=C(N[C@@H](c1ccccc1)c1cccc(OCc2cccc(C(=O)NCCCCNC[C@H](O)c3ccc(O)c4[nH]c(=O)ccc34)c2)c1)O[C@H]1CN2CCC1CC2
- IC50 [1]: 794 pM
- Ki [2]: 12.6 pM
- Ki [3]: 63.1 pM
- IC50 [4]: 1000 pM
- IC50 [5]: 794 pM

Compound: CN1CCC(COC(=O)[C@](O)(c2ccccc2)c2cccc(OCCCNC(=O)c3ccc(CNC[C@H](O)c4ccc(O)c5[nH]c(=O)ccc45)cc3)c2)CC1
- Ki [2]: 39.8 pM
- half-life at 2 h, 5 µM [6]: > 2.5 h
- hepatocyte CLint at 1.5 h, 1 µM [7]: 15 µL/min/1e6 cells
- Ki [3]: 501 pM
- half-life at 2 h, 5 µM [8]: 0.183 h
- hepatocyte CLint at 1.5 h, 1 µM [9]: < 2 µL/min/1e6 cells
- half-life at 2 h, 5 µM [10]: 1.92 h

Compound: COc1cc(C(=O)NCCCOc2cccc([C@](O)(C(=O)OCC3CCN(CC4CC4)CC3)c3ccccc3)c2)c(F)cc1CNC[C@H](O)c1ccc(O)c2[nH]c(=O)ccc12.O=CO.O=CO
- Ki [2]: 316 pM
- half-life at 2 h, 5 µM [6]: > 2.5 h
- hepatocyte CLint at 1.5 h, 1 µM [7]: 47 µL/min/1e6 cells
- Ki [3]: 10 pM
- half-life at 2 h, 5 µM [8]: > 2.5 h
- hepatocyte CLint at 1.5 h, 1 µM [9]: 9 µL/min/1e6 cells
- half-life at 2 h, 5 µM [10]: 0.25 h

Compound: O=C(c1ccc(CNC[C@H](O)c2ccc(O)c3[nH]c(=O)ccc23)cc1)N1CC(COc2cccc([C@](O)(C(=O)OCC3CCN(Cc4ccccc4)CC3)c3ccccc3)c2)C1
- Ki [2]: 1000 pM
- half-life at 2 h, 5 µM [6]: > 2.5 h
- hepatocyte CLint at 1.5 h, 1 µM [7]: 22 µL/min/1e6 cells
- Ki [3]: 1260 pM
- half-life at 2 h, 5 µM [8]: 0.317 h
- hepatocyte CLint at 1.5 h, 1 µM [9]: 16 µL/min/1e6 cells
- half-life at 2 h, 5 µM [10]: 0.833 h

Compound: CN1CCC(COC(=O)[C@](O)(c2ccccc2)c2cccc(-c3ccc(CNC(=O)c4ccc(CNC[C@H](O)c5ccc(O)c6[nH]c(=O)ccc56)cc4)s3)c2)CC1
- Ki [2]: 398 pM
- half-life at 2 h, 5 µM [6]: > 2.5 h
- hepatocyte CLint at 1.5 h, 1 µM [7]: 21 µL/min/1e6 cells
- Ki [3]: 2510 pM
- half-life at 2 h, 5 µM [8]: 0.8 h
- hepatocyte CLint at 1.5 h, 1 µM [9]: 27 µL/min/1e6 cells
- half-life at 2 h, 5 µM [10]: 1.47 h

Compound: O=C(N[C@@H](c1ccccc1)c1cccc(OCc2ccc(C(=O)NCCCNC[C@H](O)c3ccc(O)c4[nH]c(=O)ccc34)cc2)c1)O[C@@H]1CN2CCC1CC2
- IC50 [1]: 200 pM
- Ki [2]: 12.6 pM
- Ki [3]: 100 pM
- IC50 [4]: 158 pM
- IC50 [5]: 158 pM

Compound: O=C(NCCCNC[C@H](O)c1ccc(O)c2[nH]c(=O)ccc12)c1ccc(COc2cccc([C@@](O)(C(=O)OCC3CCN(Cc4ccccc4)CC3)c3ccccc3)c2)cc1
- IC50 [1]: 5010 pM
- Ki [2]: 31.6 pM
- Ki [3]: 3160 pM
- IC50 [4]: 200 pM
- IC50 [5]: 20 pM

Compound: COc1cc(C(=O)NCCCOc2cccc([C@](O)(C(=O)OCC3CCN(Cc4ccccc4)CC3)c3ccccc3)c2)c(F)cc1CNC[C@H](O)c1ccc(O)c2[nH]c(=O)ccc12
- IC50 [1]: 794 pM
- Ki [2]: 251 pM
- half-life at 2 h, 5 µM [6]: > 2.5 h
- hepatocyte CLint at 1.5 h, 1 µM [7]: 33 µL/min/1e6 cells
- Ki [3]: 10 pM
- half-life at 1 h, 1 µM [11]: 1.92 h
- half-life at 1 h, 1 µM [12]: 1.85 h
- half-life at 2 h, 5 µM [8]: 0.133 h
- IC50 [4]: 100 pM
- half-life at 1 h, 1 µM [13]: 0.433 h
- hepatocyte CLint at 1.5 h, 1 µM [9]: 20 µL/min/1e6 cells
- half-life at 2 h, 5 µM [10]: 0.917 h

Compound: COc1cc(C(=O)N2CCC(c3cccc([C@](O)(C(=O)OCC4CCN(Cc5ccccc5)CC4)c4ccccc4)c3)CC2)ccc1CNC[C@H](O)c1ccc(O)c2[nH]c(=O)ccc12
- Ki [2]: 501 pM
- half-life at 2 h, 5 µM [6]: > 2.5 h
- hepatocyte CLint at 1.5 h, 1 µM [7]: 29 µL/min/1e6 cells
- Ki [3]: 631 pM
- half-life at 2 h, 5 µM [8]: 0.583 h
- hepatocyte CLint at 1.5 h, 1 µM [9]: 28 µL/min/1e6 cells
- half-life at 2 h, 5 µM [10]: > 2.5 h

Compound: CN1CCC(COC(=O)[C@@](O)(c2ccccc2)c2cccc(-c3ccc(CNC(=O)c4ccc(CNC[C@H](O)c5ccc(O)c6[nH]c(=O)ccc56)cc4)s3)c2)CC1
- Ki [2]: 1000 pM
- half-life at 2 h, 5 µM [6]: > 2.5 h
- hepatocyte CLint at 1.5 h, 1 µM [7]: 13 µL/min/1e6 cells
- Ki [3]: 158 pM
- half-life at 2 h, 5 µM [8]: 0.15 h
- hepatocyte CLint at 1.5 h, 1 µM [9]: 3 µL/min/1e6 cells
- half-life at 2 h, 5 µM [10]: > 2.5 h

Compound: COc1cc(C(=O)NCCCOc2cccc([C@](O)(C(=O)OCC3CCN(Cc4ccccc4)CC3)c3ccccc3)c2)ccc1CNC[C@H](O)c1ccc(O)c2[nH]c(=O)ccc12
- IC50 [1]: 126 pM
- Ki [2]: 398 pM
- half-life at 2 h, 5 µM [6]: > 2.5 h
- hepatocyte CLint at 1.5 h, 1 µM [7]: 60 µL/min/1e6 cells
- Ki [3]: 20 pM
- half-life at 1 h, 1 µM [11]: 4 h
- half-life at 1 h, 1 µM [12]: 3.95 h
- half-life at 2 h, 5 µM [8]: 0.1 h
- IC50 [4]: 12.6 pM
- half-life at 1 h, 1 µM [13]: 0.483 h
- hepatocyte CLint at 1.5 h, 1 µM [9]: 20 µL/min/1e6 cells
- half-life at 2 h, 5 µM [10]: 0.6 h

Compound: O=C(NCc1ccc(-c2cccc([C@](O)(C(=O)OCC3CCN(Cc4ccccc4)CC3)c3ccccc3)c2)s1)c1ccc(CNC[C@H](O)c2ccc(O)c3[nH]c(=O)ccc23)cc1
- Ki [2]: 2510 pM
- half-life at 2 h, 5 µM [6]: > 2.5 h
- hepatocyte CLint at 1.5 h, 1 µM [7]: 50 µL/min/1e6 cells
- Ki [3]: 251 pM
- half-life at 1 h, 1 µM [11]: 1.47 h
- half-life at 1 h, 1 µM [12]: 2.1 h
- half-life at 2 h, 5 µM [8]: 0.217 h
- hepatocyte CLint at 1.5 h, 1 µM [14]: 295 µL/min/1e6 cells
- half-life at 1 h, 1 µM [13]: 2.1 h
- hepatocyte CLint at 1.5 h, 1 µM [9]: 12 µL/min/1e6 cells
- half-life at 2 h, 5 µM [10]: > 2.5 h

Compound: O=C(NCCCNC[C@H](O)c1ccc(O)c2[nH]c(=O)ccc12)c1ccc(COc2cccc([C@](O)(C(=O)OCC3CCN(Cc4ccccc4)CC3)c3ccccc3)c2)cc1
- IC50 [1]: 200 pM
- Ki [2]: 20 pM
- Ki [3]: 251 pM
- IC50 [4]: 200 pM
- IC50 [5]: 126 pM

Compound: O=C(c1ccc(CCNC[C@H](O)c2ccc(O)c3[nH]c(=O)ccc23)cc1)N1CCC(c2cccc([C@](O)(C(=O)OCC3CCN(Cc4ccccc4)CC3)c3ccccc3)c2)CC1
- IC50 [1]: 2000 pM
- Ki [2]: 398 pM
- half-life at 2 h, 5 µM [6]: > 2.5 h
- hepatocyte CLint at 1.5 h, 1 µM [7]: 36 µL/min/1e6 cells
- Ki [3]: 63.1 pM
- half-life at 1 h, 1 µM [11]: 3 h
- half-life at 1 h, 1 µM [12]: 2.47 h
- half-life at 2 h, 5 µM [8]: 0.267 h
- IC50 [4]: 631 pM
- half-life at 1 h, 1 µM [13]: 1.9 h
- hepatocyte CLint at 1.5 h, 1 µM [9]: 13 µL/min/1e6 cells
- half-life at 2 h, 5 µM [10]: 0.533 h

Compound: O=C(NCCCCNC[C@H](O)c1ccc(O)c2[nH]c(=O)ccc12)c1ccc(CNC2(C(=O)O[C@H]3CN4CCC3CC4)CCc3ccccc32)cc1 (mixture of isomers)
- IC50 [1]: 3160 pM
- Ki [2]: 501 pM
- Ki [3]: 126 pM
- IC50 [4]: 2510 pM
- IC50 [5]: 1580 pM

Compound: O=C(NCCCCNC[C@H](O)c1ccc(O)c2[nH]c(=O)ccc12)c1ccc(CNC2(C(=O)OCC3CCN(Cc4ccccc4)CC3)CCc3ccccc32)s1 (mixture of isomers; 32)
- IC50 [1]: 1000 pM
- Ki [2]: 63.1 pM
- half-life at 2 h, 5 µM [6]: > 2.5 h
- hepatocyte CLint at 1.5 h, 1 µM ([7]; CLH): 44 µL/min/1e6 cells
- Ki [3]: 3980 pM
- half-life at 1 h, 1 µM ([11]; t1/2): 1.62 h
- half-life at 1 h, 1 µM ([12]; t1/2): 2.35 h
- IC50 [4]: 25.1 pM
- hepatocyte CLint at 1.5 h, 1 µM ([9]; CLH): 13 µL/min/1e6 cells
- half-life at 2 h, 5 µM ([10]; t1/2): 0.5 h
- IC50 [5]: 50.1 pM

Compound: O=C(NCCCCNC[C@H](O)c1ccc(O)c2[nH]c(=O)ccc12)c1ccc(CNC2(C(=O)OCC3CCN(Cc4ccccc4)CC3)CCc3ccccc32)s1 (mixture of isomers; 33)
- inhibition in vivo at 0.003 µmol/kg [15]: 96%
- IC50 [1]: 794 pM
- Ki [2]: 31.6 pM
- inhibition in vivo at 0.003 µmol/kg [16]: 60%
- Ki [3]: 2000 pM
- IC50 [4]: 63.1 pM
- inhibition in vivo at 0.003 µmol/kg [17]: 83%
- fraction unbound at 4 h, 5 µM [18]: 0.06

Compound: O=C(c1ccc(OCc2ccc(CNC[C@H](O)c3ccc(O)c4[nH]c(=O)ccc34)cc2)cc1)N1CC(C(=O)OC2CN3CCC2CC3)(c2ccccc2)C1 (single isomer, unassigned)
- IC50 [1]: 1000 pM
- Ki [2]: 631 pM
- Ki [3]: 316 pM
- IC50 [4]: 1000 pM
- IC50 [5]: 1000 pM
